Reference: the METLIN SMRT retention time set (Domingo-Almenara et al. 2019)

Test: gradient 5% acetonitrile 3 min, to 50% in 2 min, to 85% in 15 min, held 3 min, 100 µL/min
Settings: column: Zorbax Extend-C18 2.1 x 50 mm; eluents: water / acetonitrile, 0.1% formic acid
How it was run: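 In both positive and negative ionization mode, a quadrupole time-of-flight mass spectrometer coupled to HPLC analyzed pure standards run in mixtures of ~100 molecules. The Zorbax Extend-C18 column (2.1 × 50 mm, 1.8 μm) was operated at 100 μL/min with water and acetonitrile, each containing 0.1% formic acid. The dead volume was 40 μL and the dwell volume 900 μL. Retention time came from adduct peaks that were computationally picked and individually inspected by hand.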

RP-LC retention time [s] | Structure (SMILES)
731 | COc1ccccc1CCNC(=O)C1CN(C(=O)c2ccc(F)c(F)c2)C1
688 | COc1ccccc1CC(=O)NC1CCN(c2cc(-c3ccccc3)[nH]n2)C1 (configuration not stated)
658 | O=C(Nc1cnc(N2CCCC2)nc1)c1ccsc1
869 | Cc1noc(C)c1-c1ccc(S(=O)(=O)NCc2cccs2)cc1
1260 | COc1ccc(C2Cn3nnc(-c4nc(-c5ccc(Br)cc5)no4)c3CO2)cc1 (configuration not stated)
760 | O=C(c1ccccc1Br)N1CCN(Cc2noc3ccccc23)CC1
780 | CCn1cnc2ccc(-c3noc(-c4ccc(OC)c(F)c4)n3)cc21
932 | CCc1nnc(-c2ccc3ccn(CC(=O)Nc4cc(C)ccc4OC)c3c2)o1
828 | CCCc1nc(C2CC(=O)N(c3ccc(OC)cc3)C2)no1 (configuration not stated)
784 | COc1cccc(C(=O)NCc2nnnn2C2CCCCC2)c1OC
707 | c1ccc2c(c1)OCC(c1nc(-c3ccc(-n4ccnc4)nc3)no1)O2 (configuration not stated)
664 | Cc1cc(SCC(N)=O)nc2ccccc12
820 | CN(C)c1cccc(C(=O)N2CCN(c3cc(-c4ccc(Cl)cc4)[nH]n3)CC2)c1
848 | O=C(C1=CN(c2ccccc2F)c2cc(F)ccc2S1(=O)=O)N1CCCCC1
1160 | Cc1noc(-c2cc(S(=O)(=O)N3CCC(C)CC3)c(C)s2)c1C
784 | CSc1ccc(-c2nc3cnccn3c2Nc2cccc(C(=O)NC(C)C)c2)cc1
661 | O=C(c1csc(S(=O)(=O)N2CCC(C(=O)N3CCCC3)CC2)c1)N1CCCC1
570 | Cc1ccc(CN2CC[C@]3(CO)CN(Cc4ccccc4)C[C@@H]3C2)cc1C
1030 | O=C(NCc1nc(-c2ccc(-c3csc(C4CC4)n3)cc2)no1)c1ccccc1
699 | COc1ccccc1C1C2=C(CC(C)(C)CC2=O)Nc2ccccc2N1C(=O)CCC(=O)O (configuration not stated)
583 | O=C(NCC1CCCO1)C(=O)NCC(c1ccc2c(c1)OCO2)N1CCOCC1 (configuration not stated)
910 | CC(=O)c1cccc(NC(=O)Cn2c(=O)n(-c3ccc(F)cc3)c(=O)c3c2cc(C)n3C)c1
939 | Cc1ccccc1OCC(=O)Nc1cc2c(cc1Oc1ccccc1)n(C)c(=O)c(=O)n2C

RP-LC retention time [s] | Structure (SMILES)
657 | O=C([C@@H]1C[C@H](F)CN1C(=O)Cc1ccsc1)N1CCCCC1
780 | Cc1nn(C)c(C)c1CCN(C)c1ccc(C(=O)O)cc1NC(=O)c1ccc(Cl)cc1
1080 | Cc1ccc(-c2nc3cnccn3c2Nc2ccc(C)c(Cl)c2)cc1
939 | COC(=O)c1cc(S(=O)(=O)N2CCCC2C(=O)NCc2ccc(C)cc2)cn1C (configuration not stated)
1100 | Cc1ccc(CNC(=O)Nc2ccc(-c3nc(-c4ccccc4)co3)cc2)cc1
670 | Cc1ccn2cc(C(=O)NC(C)c3ccc(F)cc3)nc2c1 (configuration not stated)
1010 | CCS(=O)(=O)Nc1ccc(C2(C(=O)N3CCCC(C)C3)CCCCC2)cc1 (configuration not stated)
585 | Oc1cc2c(cc1O)C(c1ccccc1)CNCC2 (configuration not stated)
964 | COC(=O)c1cnn(-c2cccc(C)c2)c1-n1cccc1
639 | CCOC(=O)c1ccc(NC(=O)CN2CCc3[nH]c4c(C)c(C)ccc4c(=O)c3C2)cc1
692 | CS(=O)(=O)N1CCC(CNC(=O)CCSc2ccccc2)CC1
710 | CN1CCCc2cc(C(CNC(=O)C(=O)NCc3ccccc3)N3CCCC3)ccc21 (configuration not stated)
576 | CN1CCN(C(=O)c2cc3n(n2)CC(C)(C(=O)NCc2ccc(F)cc2)N(C)C3=O)CC1 (configuration not stated)
642 | CCNC(=O)C1CCCN(c2nc3ncn(CC(=O)NCc4ccc(OC)cc4)c(=O)c3s2)C1 (configuration not stated)
680 | COC(=O)c1ccc(NCc2cc(O)ccc2O)cc1
1100 | Fc1ccccc1-c1noc(Cc2nnc(-c3ccc(Cl)cc3)o2)n1
728 | CCCN(CC1CCOC1)C(=O)Nc1ccccc1F (configuration not stated)
1200 | CCOc1ccc(NC(=O)c2c(C)sc3ncnc(N4CCCC(C)C4)c23)cc1 (configuration not stated)
615 | Cn1ncc2c3ccccc3n(CC(=O)NCCCN3CCCC3=O)c2c1=O
611 | COCCNc1c(-c2ccccc2)nc2sc(C(=O)NCc3cccnc3)c(C)n12
706 | Cc1cc(NC(=O)N2CCC(n3c(C)nc4cccnc43)CC2)ccc1Br
1200 | Cc1ccc(-c2nc(-c3ccc(-c4noc(CNC(=O)Cc5ccccc5)n4)cc3)cs2)s1
1300 | Clc1ccc(-c2csc(Nc3ccccc3)n2)cc1Cl

RP-LC retention time [s] | Structure (SMILES)
1200 | Cc1sc(C)c(S(=O)(=O)NC2CCCCC2)c1-c1cc(C(F)(F)F)on1
965 | CC1CCN(S(=O)(=O)c2cccn(CC(=O)OC(C)(C)C)c2=O)CC1
600 | O=S(=O)(Nc1ccc(-c2cn3ccccc3n2)cc1)c1ccccc1
1120 | O=C(NC1CCc2ccccc21)C1CCN(c2ncccc2-c2nc(-c3ccccc3)no2)CC1 (configuration not stated)
734 | Cc1ccc(-n2nnnc2CNC(=O)Nc2ccc3c(c2)OCO3)cc1C
819 | Cn1cccc1C(=O)C(=O)N1CCN(c2ccc(F)cc2)CC1
700 | O=C(NCc1cccnc1-c1ccc(F)cc1)c1cc(F)ccc1Cl
633 | CCS(=O)(=O)Nc1ccc2nc(N3CCN(c4ccccc4OC)CC3)cc(C(=O)O)c2c1
918 | O=C(O)Cc1sc(Nc2cccc3ccccc23)nc1-c1ccc(F)cc1
916 | COC(=O)C1=CN(c2cccc(C)c2C)c2ccccc2S1(=O)=O
1020 | COCCOC(=O)c1c(C)oc2ccc(OC(=O)c3cccs3)cc12
921 | CCOc1nccnc1N1CCC(NC(=O)Cc2cccs2)C1 (configuration not stated)
891 | Cc1cccc(-c2nc3sc(N4CCCCC4)nn3c2NC(=O)C2CC2)c1
1050 | COc1ccc(N2CC(c3nc(-c4ccc(C)cc4)no3)CC2=O)cc1Cl (configuration not stated)
1060 | Cc1ccc(CNC(=O)C2CCCN(c3nc4ccsc4c(=O)n3Cc3ccc(C)cc3)C2)cc1 (configuration not stated)
821 | Cc1ccc(NS(=O)(=O)c2cc3c(=O)n(C)ncn3c2)cc1
793 | Cc1ccc(CNC(=O)C2CCCN(c3ncnc4c3nc3n4CCCCC3)C2)cc1 (configuration not stated)
745 | Cc1ccc(S(=O)(=O)N2CCC3(CC2)NCCN=C3NCc2cccc(F)c2)cc1C
1010 | Fc1ccc(Cn2cc(-c3noc(-c4cccc(F)c4)n3)nn2)cc1
656 | CCc1ccc2oc(C(=O)NCC(c3ccc(OC)cc3)N(C)C)cc(=O)c2c1 (configuration not stated)
1210 | CCCN1C(=O)COc2ccc(-c3noc(-c4ccccc4)n3)cc21
